Some test systems named below: TK-10; MCF7; SN12C; UACC-62; SNB-19; NCI-H226; IGROV-1; HOP-62; PC-3; SF-295; HOP-92; SK-MEL-28; SK-MEL-2; HCT-15; HL-60; K562; HCC 2998.
Experiment in all cases: NCI-60 cell line screen, 48 h

The structures appear in SMILES notation.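 Dose response: 5 concentrations. Exposure: 48 h. Format: 96-well plates. Endpoint: linear interpolation; highest concentration if not reached. GI50: concentration for 50% inhibition of growth.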 Activity calls are given as the source filed them. Rule as the data show it: active = GI50 up to about 1.1 µM and inactive = higher. A value given as a limit tells only on which side of the number the result lay.

On to `CCCC1c2c(ccc3ccccc23)Oc2ccc3ccccc3c21`, for which the GI50 in the experiment with TK-10 was 35.7 µM (inactive); in the experiment on MCF7, 15.5 µM (inactive); with SN12C, 65.3 µM (inactive); with UACC-62, 84.9 µM (inactive); in the experiment on SNB-19, > 100 µM (inactive); in the experiment on NCI-H226 it was 60.3 µM (inactive). Also, the GI50 in the experiment on IGROV-1 is 50.7 µM (inactive); in the experiment with HOP-62, > 100 µM (inactive); with PC-3 it was 64.4 µM (inactive); in the experiment with SF-295, 28.1 µM (inactive); with HOP-92 it was > 100 µM (inactive); in the experiment on SK-MEL-28 it was 68.4 µM (inactive). Moreover, the GI50 with SK-MEL-2 was 20.3 µM (inactive); in the experiment with HCT-15, 31.6 µM.

Turning to `Cc1nc(N)nc(S)c1CCCNc1ccccc1`, the GI50 in the experiment on HL-60 is 50 µM (inactive); with TK-10, 63.8 µM (inactive); in the experiment with MCF7 it was 38 µM (inactive); in the experiment on SN12C, 69.7 µM (inactive); with UACC-62, 78.2 µM (inactive); in the experiment on SNB-19 it was 89.7 µM (inactive). The GI50 is > 100 µM (inactive) with NCI-H226; 2.36 µM (inactive) in the experiment with K562; > 100 µM (inactive) with IGROV-1; > 100 µM (inactive) with HOP-62; 61.2 µM (inactive) in the experiment on PC-3; 56.4 µM (inactive) in the experiment on SF-295. For the same molecule, the GI50 was > 100 µM (inactive) in the experiment on HOP-92, > 100 µM (inactive) in the experiment with SK-MEL-28, 60.1 µM (inactive) with SK-MEL-2 and greater than 100 µM with HCT-15.

Turning to `Nc1ccc2c(SCCSc3c4ccccc4nc4cc(N)ccc34)c3ccccc3nc2c1`, the GI50 in the experiment on TK-10, with MCF7, in the experiment on SN12C, in the experiment with UACC-62, in the experiment with SNB-19 and in the experiment on NCI-H226 was > 100 µM (inactive) each time. Moreover, the GI50 was 38.6 µM (inactive) in the experiment on K562; > 100 µM (inactive) with IGROV-1; > 100 µM (inactive) in the experiment on HOP-62; > 100 µM (inactive) in the experiment with PC-3; > 100 µM (inactive) in the experiment on SF-295; > 100 µM (inactive) in the experiment on HOP-92. For the same molecule, the GI50 was > 100 µM (inactive) in the experiment on SK-MEL-28, > 100 µM (inactive) in the experiment with SK-MEL-2 and greater than 100 µM in the experiment on HCT-15.

Consider `COC(=O)c1cc(=O)nc2sc3cccc(C)c3n12`, for which the GI50 is 19 µM (inactive) with HL-60; > 100 µM (inactive) in the experiment with TK-10; 52.5 µM (inactive) in the experiment on MCF7; 40.6 µM (inactive) in the experiment with SN12C; 46.2 µM (inactive) in the experiment on UACC-62; 46.3 µM (inactive) in the experiment on SNB-19. The GI50 in the experiment on NCI-H226 is 18.7 µM (inactive); with K562, 30.3 µM (inactive); in the experiment on IGROV-1, 92 µM (inactive); in the experiment on HOP-62 it was > 100 µM (inactive); with PC-3, 21 µM (inactive); in the experiment on SF-295, 67 µM (inactive). Moreover, the GI50 was 30.2 µM (inactive) in the experiment on HOP-92, 62.8 µM (inactive) in the experiment on SK-MEL-28, 30.3 µM (inactive) with SK-MEL-2 and 43 µM in the experiment with HCT-15.

`c1ccc(/C(=N/Nc2cnccn2)c2ncccn2)cc1`: the GI50 with MCF7 was > 100 µM (inactive); in the experiment on SN12C, > 100 µM (inactive); in the experiment on HCC 2998, > 100 µM (inactive); with UACC-62, 88.3 µM (inactive); in the experiment with SNB-19 it was > 100 µM (inactive); in the experiment on K562 it was > 100 µM (inactive). Moreover, the GI50 in the experiment with IGROV-1 is 23.7 µM (inactive); with HOP-62, 53.5 µM (inactive); in the experiment on PC-3 it was > 100 µM (inactive); in the experiment with SF-295, > 100 µM (inactive); with HOP-92, 35.7 µM (inactive); in the experiment on SK-MEL-28, > 100 µM (inactive). In addition, the GI50 in the experiment with SK-MEL-2 was > 100 µM (inactive); in the experiment on HCT-15, 50.6 µM.

Consider `COc1ccccc1N/C(=C\C(=O)C(=O)NC12CC3CC(CC(C3)C1)C2)c1ccccc1`, for which the GI50 in the experiment on HL-60, with TK-10, in the experiment on MCF7, in the experiment on SN12C, in the experiment on HCC 2998 and in the experiment on NCI-H226 was > 10 µM (inactive) throughout. In addition, the GI50 was > 10 µM (inactive) in the experiment with K562; > 10 µM (inactive) in the experiment on IGROV-1; > 10 µM (inactive) in the experiment with HOP-62; 7.55 µM (inactive) with PC-3; > 10 µM (inactive) in the experiment with SF-295; > 10 µM (inactive) with SK-MEL-28. For the same molecule, the GI50 in the experiment with SK-MEL-2 was > 10 µM (inactive); with HCT-15 it was greater than 10 µM.

Consider `N#Cc1cc(Sc2ccc(N)c(C#N)c2)ccc1N`, for which the GI50 in the experiment with HL-60 was 1.87 µM (inactive); with TK-10, 65.6 µM (inactive); in the experiment on MCF7, 15.8 µM (inactive); with SN12C it was 48.4 µM (inactive); in the experiment on UACC-62, 14.8 µM (inactive); with SNB-19, 14.8 µM (inactive). Moreover, the GI50 in the experiment with NCI-H226 is 19.6 µM (inactive); in the experiment on K562, 3.44 µM (inactive); in the experiment with IGROV-1, 25.1 µM (inactive); in the experiment on HOP-62, 41.9 µM (inactive); with PC-3, 22.8 µM (inactive); in the experiment with SF-295 it was 17.6 µM (inactive). Further, the GI50 is 21.7 µM (inactive) in the experiment on HOP-92, 55.2 µM (inactive) in the experiment on SK-MEL-28, 30.3 µM (inactive) in the experiment with SK-MEL-2 and 9.51 µM with HCT-15.

In the case of `CC(=O)NNC1=NN(C(C)=O)C2(S1)C(=O)Nc1ccccc12` (centres undefined), the GI50 in the experiment on HL-60 is 97.5 µM (inactive); in the experiment with TK-10, > 100 µM (inactive); in the experiment with MCF7, > 100 µM (inactive); with SN12C, > 100 µM (inactive); in the experiment on HCC 2998, > 100 µM (inactive); with UACC-62, > 100 µM (inactive). Moreover, the GI50 in the experiment on SNB-19 is > 100 µM (inactive); in the experiment on NCI-H226, > 100 µM (inactive); with K562 it was > 100 µM (inactive); in the experiment with IGROV-1 it was > 100 µM (inactive); with HOP-62 it was > 100 µM (inactive); in the experiment on PC-3, 45 µM (inactive). Also, the GI50 is > 100 µM (inactive) with SK-MEL-28, > 100 µM (inactive) in the experiment with SK-MEL-2 and greater than 100 µM in the experiment on HCT-15.

Regarding `CCC1C(c2cc(OC)c(OC)c(OC)c2)c2cc3c(cc2OC1N1CCOCC1)OCO3` (centres undefined), the GI50 in the experiment on MCF7 is 2.84 µM (inactive); with SN12C, 8.15 µM (inactive); with UACC-62 it was 6.08 µM (inactive); in the experiment on SNB-19, 4.14 µM (inactive); with NCI-H226, 7.98 µM (inactive); with IGROV-1 it was 3.9 µM (inactive). Also, the GI50 with HOP-62 was 4.01 µM (inactive); in the experiment on PC-3 it was 2.02 µM (inactive); with SF-295 it was 2.79 µM (inactive); in the experiment with HOP-92 it was 10.8 µM (inactive); in the experiment with SK-MEL-2, 14.7 µM (inactive); in the experiment with HCT-15, 3.08 µM.

For the molecule `CC(C)=CC1C(C(=O)Oc2ccccc2C(C)C)C1(C)C` (centres undefined), the GI50 was 19.1 µM (inactive) in the experiment on HL-60; 32.8 µM (inactive) with TK-10; 19.8 µM (inactive) in the experiment with MCF7; 20.5 µM (inactive) in the experiment with SN12C; 17.8 µM (inactive) in the experiment on HCC 2998; 36.7 µM (inactive) in the experiment on UACC-62. Also, the GI50 in the experiment with SNB-19 is 34.3 µM (inactive); in the experiment with K562 it was 25.8 µM (inactive); with IGROV-1, 29.8 µM (inactive); in the experiment with HOP-62 it was 27.9 µM (inactive); in the experiment on SF-295 it was 17.7 µM (inactive); in the experiment on HOP-92 it was 25.5 µM (inactive). Also, the GI50 is 39.1 µM (inactive) with SK-MEL-28, 17.1 µM (inactive) with SK-MEL-2 and 21 µM in the experiment on HCT-15.

`COC(=O)c1c(O)ccc2c1c1c(n2Cc2ccc(OC)cc2)C(=O)c2ccccc2C1`: the GI50 with HL-60 is > 100 µM (inactive); in the experiment on TK-10 it was 84.1 µM (inactive); in the experiment with MCF7, 22.4 µM (inactive); in the experiment with SN12C, 27 µM (inactive); in the experiment with UACC-62, > 100 µM (inactive); in the experiment on SNB-19 it was 71 µM (inactive). The GI50 in the experiment with NCI-H226 is > 100 µM (inactive); in the experiment on K562, 76.7 µM (inactive); in the experiment on IGROV-1 it was 21.6 µM (inactive); with HOP-62, > 100 µM (inactive); with PC-3, 18.5 µM (inactive); in the experiment with SF-295, 47.4 µM (inactive). The results for the GI50 in the experiment with SK-MEL-28, in the experiment on SK-MEL-2 and in the experiment on HCT-15 were > 100 µM (inactive), 62.5 µM (inactive) and 52.1 µM, respectively.

For `CC(C)(C)[Si](C)(C)OCC1OC(n2cnc3c(N)ncnc32)C(O)C1O` (centres undefined), the GI50 in the experiment with HL-60 was > 100 µM (inactive); in the experiment with TK-10, > 100 µM (inactive); in the experiment on MCF7, > 100 µM (inactive); in the experiment on SN12C, > 100 µM (inactive); with UACC-62, 22.1 µM (inactive); in the experiment on SNB-19, > 100 µM (inactive). For the same molecule, the GI50 with NCI-H226 is > 100 µM (inactive); with K562, 70.6 µM (inactive); in the experiment on IGROV-1, > 100 µM (inactive); in the experiment with HOP-62, > 100 µM (inactive); with PC-3, 43.5 µM (inactive); in the experiment with SF-295 it was > 100 µM (inactive). Moreover, the GI50 in the experiment on SK-MEL-28 was > 100 µM (inactive); in the experiment on SK-MEL-2, > 100 µM (inactive); with HCT-15 it was greater than 100 µM.

Take `COc1cc(CSc2ccc(O)cc2)cc(OC)c1OC`: the GI50 in the experiment on HL-60 is 20.4 µM (inactive); with TK-10, 75.2 µM (inactive); with MCF7, 4.31 µM (inactive); in the experiment on SN12C it was 52.5 µM (inactive); in the experiment with UACC-62, 27.4 µM (inactive); in the experiment on SNB-19, 34.6 µM (inactive). Also, the GI50 in the experiment on NCI-H226 was 29 µM (inactive); with K562 it was 38 µM (inactive); in the experiment with IGROV-1, 48.5 µM (inactive); with HOP-62, 49.7 µM (inactive); in the experiment with PC-3, 27.4 µM (inactive); in the experiment on SF-295, 24.9 µM (inactive). The GI50 in the experiment with HOP-92 was 19.3 µM (inactive); in the experiment on SK-MEL-28 it was 76.7 µM (inactive); in the experiment on SK-MEL-2, 21 µM (inactive); with HCT-15, 25.5 µM.

Consider `NC(=O)CC[C@H]1C(=O)N=C(N)N1C(=O)OCc1ccccc1`, for which the GI50 in the experiment with HL-60, in the experiment with TK-10, with MCF7, in the experiment with SN12C, in the experiment with HCC 2998 and in the experiment on UACC-62 was > 100 µM (inactive) throughout. Moreover, the GI50 with SNB-19, with NCI-H226, in the experiment on K562, in the experiment on IGROV-1, in the experiment with HOP-62 and in the experiment with PC-3 was > 100 µM (inactive) each time. Moreover, the GI50 with SF-295 was > 100 µM (inactive); in the experiment on SK-MEL-28, > 100 µM (inactive); in the experiment on SK-MEL-2, > 100 µM (inactive); in the experiment on HCT-15, greater than 100 µM.
